Like-named read-outs stand apart in the source and are kept apart here.
Columns and labels:
Format in all cases: cell-based
[1] = tested on: Corynebacterium glutamicum ATCC13032; assay: Bacterial growth in microscale cultivation, C. glutamicum; settings: for activity at 8 µM / activity at 80 µM / activity at 400 µM / activity at 160 µM: Corynebacterium glutamicum; for activity at 8 µM / activity at 80 µM / activity at 400 µM / activity at 160 µM / Lag Phase: relative to control
Procedure: (§1) The following bacteria were cultivated in the presence of trans-chalcone derived inhibitors: Corynebacterium glutamicum ATCC13032[43], Escherichia coli K-12 MG1655[44], Pseudomonas putida KT2440[45], and Bacillus subtilis 168[46]. The growth of these bacteria was monitored in flower-well plates shaken at 1200 rpm as backscatter at 620 nm (gain 20) using a BioLector® microscale cultivation system (m2p labs, Baesweiler, Germany). For further experimental details please refer to the Supplementary Information.
(§2) medium or the appropriate minimal medium and shaken at 140 rpm overnight. For inoculation of
(§3) the main culture, cells equivalent to an optical density at 600 nm of 0.5 (C. glutamicum, E. coli,
(§4) and P. putida) or 0.25 (B. subtilis) in 800 µL medium were washed and resuspended in fresh
(§5) media. Inhibitor substances were dissolved in DMSO and added to the media to a final
(§6) Since the least polar trans-chalcone and 2’-hydroxychalcone precipitated in the growth media at
(§7) the highest concentrations, the maximal concentration of these compounds was reduced to 400
(§8) µM and 100 µM, respectively. The final backscatter at 620 nm, the growth rate (h-1), and the
(§9) duration of the lag phase of all cultures were determined in a BioLector microscale cultivation
(§10) system in comparison to negative controls supplemented with the solvent DMSO. A longer lag

[2] = tested on: Escherichia coli K-12 MG1655; assay: Bacterial growth in microscale cultivation, E. coli; settings: relative to control; for activity at 8 µM / activity at 80 µM / activity at 800 µM: Escherichia coli
Procedure: as §1, §2, §3, §4, §5, §6, §7, §8, §9, §10

Bacillus subtilis 168 = assay: Bacterial growth in microscale cultivation, B. subtilis; settings: for activity at 8 µM / activity at 80 µM / activity at 800 µM / activity at 160 µM / Lag Phase: relative to control
Procedure: as §1, §2, §3, §4, §5, §6, §7, §8, §9, §10

[3] = Minimal medium, highest concentration tested (10× IC50) if not stated otherwise

O=C(/C=C/c1ccccc1)c1ccccc1 [Compound 1, trans-Chalcone]
activity at 8 µM ([1]; ATCC13032, complex medium, 8 µM, read-out: Final Backscatter): 98.7%
activity at 8 µM ([1]; ATCC13032, complex medium, 8 µM, read-out: Growth rate): 105%
activity at 80 µM ([1]; ATCC13032, complex medium, 80 µM, read-out: Final Backscatter): 104%
activity at 80 µM ([1]; ATCC13032, complex medium, 80 µM, read-out: Growth rate): 103%
activity at 400 µM ([1]; ATCC13032, complex medium, 400 µM, read-out: Final Backscatter): 106%
activity at 400 µM ([1]; ATCC13032, complex medium, 400 µM, read-out: Growth rate): 103%
activity at 8 µM ([1]; ATCC13032, minimal medium, 8 µM, read-out: Final Backscatter): 99.7%
activity at 8 µM ([1]; ATCC13032, minimal medium, 8 µM, read-out: Growth rate): 99.3%
activity at 80 µM ([1]; ATCC13032, minimal medium, 80 µM, read-out: Final Backscatter): 97%
activity at 80 µM ([1]; ATCC13032, minimal medium, 80 µM, read-out: Growth rate): 97.1%
activity at 160 µM ([1]; ATCC13032, minimal medium, 160 µM, read-out: Final Backscatter): 98.3%
activity at 160 µM ([1]; ATCC13032, minimal medium, 160 µM, read-out: Growth rate): 92.5%
activity at 400 µM ([1]; ATCC13032, minimal medium, 400 µM, read-out: Final Backscatter): 99.5%
activity at 400 µM ([1]; ATCC13032, minimal medium, 400 µM, read-out: Growth rate): 87.5%
Influence on bacterial growth [1, 3]: μ↓ (5× IC50)
Lag Phase ([1]; complex medium, 8 µM): 100,0%
Lag Phase ([1]; complex medium, 80 µM): 99,5%
Lag Phase ([1]; complex medium, 400 µM): 103,7%
Lag Phase ([1]; minimal medium, 8 µM): 100,0%
Lag Phase ([1]; minimal medium, 80 µM): 102,3%
Lag Phase ([1]; minimal medium, 160 µM): 109,9%
Lag Phase ([1]; minimal medium, 400 µM): 113,6%
activity at 8 µM ([2]; MG1655, complex medium, 8 µM, read-out: Final Backscatter): 99%
activity at 8 µM ([2]; MG1655, complex medium, 8 µM, read-out: Growth rate): 105%
activity at 80 µM ([2]; MG1655, complex medium, 80 µM, read-out: Final Backscatter): 97.4%
activity at 80 µM ([2]; MG1655, complex medium, 80 µM, read-out: Growth rate): 109%
activity at 800 µM ([2]; MG1655, complex medium, 800 µM, read-out: Final Backscatter): 108%
activity at 800 µM ([2]; MG1655, complex medium, 800 µM, read-out: Growth rate): 94.7%
activity at 8 µM ([2]; MG1655, minimal medium, 8 µM, read-out: Final Backscatter): 100%
activity at 8 µM ([2]; MG1655, minimal medium, 8 µM, read-out: Growth rate): 97.5%
activity at 80 µM ([2]; MG1655, minimal medium, 80 µM, read-out: Final Backscatter): 95.1%
activity at 80 µM ([2]; MG1655, minimal medium, 80 µM, read-out: Growth rate): 104%
activity at 800 µM ([2]; MG1655, minimal medium, 800 µM, read-out: Final Backscatter): 103%
activity at 800 µM ([2]; MG1655, minimal medium, 800 µM, read-out: Growth rate): 107%
Lag Phase ([2]; complex medium, 8 µM): 102,4%
Lag Phase ([2]; complex medium, 80 µM): 102,4%
Lag Phase ([2]; complex medium, 800 µM): 101,2%
Lag Phase ([2]; minimal medium, 8 µM): 99,1%
Lag Phase ([2]; minimal medium, 80 µM): 101,8%
Lag Phase ([2]; minimal medium, 800 µM): 97,8%
activity at 8 µM (Bacillus subtilis 168; Bacillus subtilis, 168, complex medium, 8 µM, read-out: Final Backscatter): 95.4%
activity at 8 µM (Bacillus subtilis 168; Bacillus subtilis, 168, complex medium, 8 µM, read-out: Growth rate): 115%
activity at 80 µM (Bacillus subtilis 168; Bacillus subtilis, 168, complex medium, 80 µM, read-out: Final Backscatter): 99%
activity at 80 µM (Bacillus subtilis 168; Bacillus subtilis, 168, complex medium, 80 µM, read-out: Growth rate): 119%
activity at 800 µM (Bacillus subtilis 168; Bacillus subtilis, 168, complex medium, 800 µM, read-out: Final Backscatter): 103%
activity at 800 µM (Bacillus subtilis 168; Bacillus subtilis, 168, complex medium, 800 µM, read-out: Growth rate): 130%
activity at 8 µM (Bacillus subtilis 168; Bacillus subtilis, 168, minimal medium, 8 µM, read-out: Final Backscatter): 89.6%
activity at 8 µM (Bacillus subtilis 168; Bacillus subtilis, 168, minimal medium, 8 µM, read-out: Growth rate): 118%
activity at 80 µM (Bacillus subtilis 168; Bacillus subtilis, 168, minimal medium, 80 µM, read-out: Final Backscatter): 88.8%
activity at 80 µM (Bacillus subtilis 168; Bacillus subtilis, 168, minimal medium, 80 µM, read-out: Growth rate): 105%
activity at 160 µM (Bacillus subtilis 168; Bacillus subtilis, 168, minimal medium, 160 µM, read-out: Final Backscatter): 89.5%
activity at 160 µM (Bacillus subtilis 168; Bacillus subtilis, 168, minimal medium, 160 µM, read-out: Growth rate): 97.3%
activity at 800 µM (Bacillus subtilis 168; Bacillus subtilis, 168, minimal medium, 800 µM, read-out: Final Backscatter): 83.6%
activity at 800 µM (Bacillus subtilis 168; Bacillus subtilis, 168, minimal medium, 800 µM, read-out: Growth rate): 93.3%
Influence on bacterial growth (Bacillus subtilis 168; [3]): lag↑ (2× IC50)
Lag Phase (Bacillus subtilis 168; complex medium, 8 µM): 103,5%
Lag Phase (Bacillus subtilis 168; complex medium, 80 µM): 103,5%
Lag Phase (Bacillus subtilis 168; complex medium, 800 µM): 101,2%
Lag Phase (Bacillus subtilis 168; minimal medium, 8 µM): 111,6%
Lag Phase (Bacillus subtilis 168; minimal medium, 80 µM): 109,9%
Lag Phase (Bacillus subtilis 168; minimal medium, 160 µM): 110,6%
Lag Phase (Bacillus subtilis 168; minimal medium, 800 µM): 121,3%
